Measurements: US20230000063A1, “SYSTEM FOR DETECTING EXTRACELLULAR PURINERGIC RECEPTOR LIGAND, AND NON-HUMAN ANIMAL HAVING THE SYSTEM INTRODUCED THEREINTO” (Chugai Seiyaku Kabushiki Kaisha, priority 2019, published 2023)

Experiments:
[1] = system: human P2Y11; assay: Detection of in vivo ATP signal in P2Y11-split Luc (C-terminal)/Arrestin-split Luc (N-terminal) double knock-in mouse; details: 50 μL of 1 mM ATP + 15 mg/mL VivoGlo Luciferin subcutaneously, IVIS 10 to 20 minutes after, not detected in single-allele or wild type mice
Experimental: To a P2Y11-split Luc (C-terminal)/Arrestin-split Luc (N-terminal) double knock-in mouse, 50 μL of a mixture of ATP at a final concentration of 1 mM and 15 mg/mL VivoGlo Luciferin (Promega #P1043) was subcutaneously administered. A luminescent signal intensity was measured with IVIS Spectrum CT (Perkin Elmer) 10 to 20 minutes after the ATP administration. The measurement was performed under conditions of exposure time of 180 sec, with medium binning, and F/stop of 1, and thus the luminescent signal was analyzed in terms of a physical quantity (photons/sec).

[2] = molecular target: T1, human P2Y11 (Homo sapiens, UniProt Q96G91); assay: Detection of in vitro ATP concentration in fibroblasts derived from the double knock-in mouse; format: cell-based; details: fibroblast from double knock-in mouse; 0 to 1000 μM ATP + VivoGlo Luciferin; IVIS, exposure 180 sec
T1 construct: expressed in transfected cells; host or cells: cells of the P2Y11-split Luc (C-terminal)/Arrestin-split Luc (N-terminal) double knock-in mouse (Rosa26 locus): in vivo, and a skin fibroblast line derived from it
T1 sequence (Q96G91 1-374): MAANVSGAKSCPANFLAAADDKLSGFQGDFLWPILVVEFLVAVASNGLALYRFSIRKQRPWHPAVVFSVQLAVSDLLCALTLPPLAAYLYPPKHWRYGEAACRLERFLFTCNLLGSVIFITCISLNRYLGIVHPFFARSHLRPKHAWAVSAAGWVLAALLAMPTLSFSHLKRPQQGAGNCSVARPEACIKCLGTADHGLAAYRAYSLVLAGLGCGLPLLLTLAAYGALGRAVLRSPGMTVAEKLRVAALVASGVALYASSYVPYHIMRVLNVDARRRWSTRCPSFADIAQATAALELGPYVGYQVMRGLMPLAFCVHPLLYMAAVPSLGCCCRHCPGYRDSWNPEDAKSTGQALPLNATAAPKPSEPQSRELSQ
Experimental: A skin tissue was collected from a P2Y11-split Luc (C-terminal)/Arrestin-split Luc (N-terminal) double knock-in mouse, and was sliced with a scalpel in a culture fluid, and the resultant was covered with a cover glass with a dermis side in contact with a bottom of a culture dish, and was cultured in a D-MEM medium supplemented with 10% FBS and 1×NEAA. Fibroblasts confirmed to have migration/growth of cells were collected by a trypsin treatment, and the resultant was repeatedly passaged to establish a fibroblast cell line.
The fibroblast derived from the P2Y-11 split Luc (C-terminal)/Arrestin-split Luc (N-terminal) double knock-in mouse was seeded in a 24-well culture plate. On the next day, ATP at a final concentration of 0 to 1000 μM and VivoGlo Luciferin (Promega #P1043) were added thereto, and a luminescent signal was detected with IVIS Spectrum CT (Perkin Elmer). The measurement was performed under conditions of exposure time of 180 sec, with medium binning, and F/Stop of 1, and thus the luminescent signal was analyzed in terms of a physical quantity (photons/sec).

[3] = molecular target: T1, human P2Y11; assay: In vivo imaging of ATP at known concentration in the double knock-in mouse; details: 50 μL of 0, 1, 2, 4 or 8 mM ATP + 15 mg/mL VivoGlo Luciferin subcutaneously, IVIS 10 to 20 minutes after, exposure 60 sec
Experimental: To a P2Y11-split Luc (C-terminal)/Arrestin-split Luc (N-terminal) double knock-in mouse, 50 μL of a mixture of ATP at a final concentration of 0 mM, 1 mM, 2 mM, 4 mM, or 8 mM and 15 mg/mL VivoGlo Luciferin (Promega #P1043) was subcutaneously administered. A luminescent signal intensity was measured with IVIS Spectrum CT (Perkin Elmer) 10 to 20 minutes after the ATP administration. The measurement was performed under conditions of exposure time of 60 sec, with medium binning, and F/stop of 1, and thus the luminescent signal was analyzed in terms of a physical quantity (photons/sec). […] Thus it was confirmed that the mouse functions as a concentration dependent reporter mouse (FIG. 6 and FIG. 7).

## Nc1ncnc2c1ncn2[C@@H]1O[C@H](COP(=O)(O)OP(=O)(O)OP(=O)(O)O)[C@@H](O)[C@H]1O [ATP]
[1]
  luminescent signal due to the ATP administration: a luminescent signal due to the ATP administration was detected
[2]
  luminescent signal intensity: a concentration-dependent signal intensity was detected
[3]
  luminescent signal intensity: an ATP concentration-dependent signal intensity was detected
